pIC50: −log10 of the molar value.
Key:
[1] = target: T1, cAbl (Mus musculus, UniProt P00520); test: Abl kinase assay (PK/LDH coupled, NADH loss at 340 nm); assay type: biochemical; details: Table 7; 10 μM ATP
T1 construct: 2 μg/mL Abl kinase domain; made in house; host or cells: E. coli BL21(DE3) strains
T1 sequence (P00520 242-493 limits assumed): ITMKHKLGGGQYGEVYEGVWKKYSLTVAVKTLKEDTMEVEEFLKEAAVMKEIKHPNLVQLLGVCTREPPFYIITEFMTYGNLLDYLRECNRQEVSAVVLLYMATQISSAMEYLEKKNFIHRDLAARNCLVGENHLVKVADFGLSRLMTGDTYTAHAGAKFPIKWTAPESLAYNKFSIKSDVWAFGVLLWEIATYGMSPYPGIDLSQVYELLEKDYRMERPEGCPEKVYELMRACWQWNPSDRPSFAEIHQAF
Excerpt: (§1) Although this example presents the use of the kinase domain of a mutant form of Abl T315I 0-P, the kinase assays may use various forms of mutant and wild type Abl, including, for example, the entire molecule, the kinase domain, or a portion thereof. The kinases used in the assays may also be of varying phophorylation states. In the present example, a mutant kinase at a zero phosphorylation state was used.
Materials: Abl substrate peptide=EAIYAAPFAKKK-OH (Biopeptide, SD CA); βNADH (Sigma CAT#N-8129, FW=709.4); 2M MgCl2; 1M HEPES buffer, pH 7.5; Phosphoenolpyruvate=PEP (Sigma CAT#P-7002, FW=234); Lactate dehydrogenase=LDH (Worthington Biochemical CAT#2756); Pyruvate Kinase=PK (Sigma CAT#P-9136); ATP (Sigma CAT#A-3377, FW=551); Greiner 384-well UV star plate; and Purified and unphosphorylated T315I Abl kinase domain (clone 5582d42PPt6p6).
Stock Solutions: 10 mM NADH (7.09 mg/mL in miliQH2O) make fresh daily; 10 mM Abl substrate peptide (13.4 mg/mL in miliQH2O) store at −20° C.; 100 mM HEPES buffer, pH 7.5 (5 mL 1M stock+45 mL miliQH2O); 100 mM MgCl2 (5 mL 2M MgCl2+95 ml dH2O); 100 mM PEP (23.4 mg/mL in dH2O) store at −20° C.; 10 mM ATP (5.51 mg/mL in dH2O) store at −20° C. (dilute 50 μL into total of 10 mL miliQH2O daily=50 μM ATP working stock); 1000 U/mL PK (U/mg varies with lot) flash-freeze under liquid N2 and store at −80° C.; and 1000 U/mL LDH (U/mg varies with lot) flash-freeze under liquid N2 and store at −80° C.
Standard Assay Setup for 384-well format (50 μl reaction): 300 μM NADH; 10 mM MgCl2; 2 mM PEP; 45 U/mL PK; 60 U/mL LDH; 200 μM Abl substrate peptide; 2.5 μL test compound (in DMSO); 2 μg/mL Abl kinase domain; 10 μM ATP; 100 mM HEPES buffer; QS with miliQ dH2O to 50 μL; Positive controls contained DMSO with no test compound. Negative controls contained 5 μl of 0.5M EDTA (50 mM in the assay). The dephosphorylated form of the c-Abl T315I mutant were used in the biochemical screening assays. The kinase reaction was initiated at time t=0 by the addition of ATP.
The activity was measured by following the time-dependent loss of NADH by absorbance spectroscopy at 340 nm. The linear portion of the resulting progress curve was then be analyzed by linear regression to get the activity in absorbance units/time, reported as the slope of that best fit line (moles/unit time can be calculated from using molar extinction coefficient for NADH at 340 nm, 6250M^−1cm^−1).
Data was analyzed using the equation: Z′=1-[3*(σ++σ−)/|μ+−μ−|], where μ denotes the mean and σ the standard deviation. The subscript designates positive or negative controls. The Z′ score for a robust screening assay should be ≧0.50. The typical threshold=μ+−3*σ+. Any value that falls below the threshold was designated a “hit”.
Dose response was analyzed using the equation: y=min+{(max−min)/(1+10^[compound]-logIC50)}, where y is the observed initial slope, max=the slope in the absence of inhibitor, min=the slope at infinite inhibitor, and the IC50 is the [compound] that corresponds to ½ the total observed amplitude (Amplitude=max−min).
To measure modulation, activation, or inhibition of AblKD, a test compound was added to the assay at a range of concentrations. Inhibitors may inhibit AblKD activity at an IC50 in the micromolar range, the nanomolar range, and, for example, in the subnanomolar range.
To measure the binding of a compound to Abl or AblKD, a test kit manufactured by Discoverx (Fremont, Calif.), ED—Staurosporine NSIP™ Enzyme Binding Assay Kit (see U.S. Pat. No. 5,643,734) was used.

[2] = target: T2, wild type MET kinase (Homo sapiens, UniProt P08581); test: MET Kinase-Glo assay; assay type: biochemical; details: Table 9, 60 minutes at RT
T2 construct: made in house
Excerpt: as §1, with “wild type MET and RON […],” for “the kinase domain of a mutant form of Abl T315I 0-P,”, “RON or MET,” for “Abl,”, “intracellular domain,” for “molecule,”, “case of RON,” for “present example,”
(§2) For the MET and RON assays, the Kinase-Glo® assay system (Promega) was used, which employs firefly luciferase to detect the amount of ATP following a kinase reaction. This assay system has two steps. First, the kinase reaction is run for a designated period of time. Next, an equivalent volume of Kinase-Glo reagent is added to quench the kinase reaction and detect the ATP remaining in the sample. The total light output is read by a plate-reading luminometer and the resulting signal is stable for 4 hours. Inhibition of kinase activity translates into lower ATP consumption and thus higher light output during the detection step.
(§3) Materials: Poly EY 4:1 (Sigma); MgCl2 (2M stock available from Lab Support); HEPES buffer, pH 7.5; Bovine serum albumin (Roche 92423420); ATP (Sigma CAT#A-3377, FW=551); White Costar 384-well flat-bottom plate (VWR 29444-088); and SGX RON kinase clone (M1254T activation loop mutant) or SGX MET kinase clone.
MET enzyme mix: 100 mM HEPES pH 7.5, 10 mM MgCl2, 0.3 mg/mL poly EY, 0.1% BSA, and 0.4 μg/mL MET kinase.
(§4) To each well of a multiwell plate was added 15 μL of the enzyme mix, 1 μL of compound at 20-times the desired final assay concentration (or DMSO for positive controls or 200 μM staurosporine for negative controls), and 4 μL of 50 μM ATP to start the reaction. The kinase was reaction to allowed to proceed for 60 minutes at RT for the MET assay. For the RON assay, the reaction proceeded at RT for 60 minutes to 120 minutes (depending on enzyme prep). 20 μL Kinase-Glo reagent was then added to each well. The reagent was incubated for at least 10 minutes before plate reading.
(§5) Data anlaysis was performed using methods similar to those described above in the Abl assay (Firepower®, Exegetix).

[3] = target: T3, RON kinase (M1254T activation loop mutant) (Homo sapiens, UniProt Q04912, M1254T); test: RON Kinase-Glo assay; assay type: biochemical; details: Table 9, 60 minutes to 120 minutes at RT
T3 construct: made in house
Excerpt: as §1, with “wild type MET and RON […],” for “the kinase domain of a mutant form of Abl T315I 0-P,”, “RON or MET,” for “Abl,”, “intracellular domain,” for “molecule,”, “case of RON,” for “present example,”
as §2, §3
RON enzyme mix: 100 mM HEPES pH 7.5, 10 mM MgCl2, 1 mg/mL poly EY, 0.1% BSA, and 3-5 μg/mL RON kinase (depending on enzyme prep).
as §4, §5

[4] = tested on: MV4-11 cells; test: Cell survival assay (96-well XTT / 384-well AlamarBlue), MV4-11; assay type: cell-based; details: Homo sapiens, Table 10, symbol outside brackets, 72 hours
Experimental: (§6) Flt3 cell line selection was performed according to the following two known methodologies: Kelly, et al, Cancer Cell 1:421-32 (2002); and Ye, et al, Blood 100: 2941-2949 (2002). MV4-11 and THP cells are maintained in Iscove's Modified Dulbecco's Medium supplemented with 10% fetal bovine serum (FBS) and penicillin/streptomycin, Ba/F3 cells are maintained in RPMI 1640 supplemented with 10% FBS, penicillin/streptomycin and 5ng/ml recombinant mouse IL-3.
(§7) Compounds were tested in both of the following assays in triplicates.
(§8) 96-well XTT assay: Cells are grown in their growth media containing various concentrations of compounds (triplicates) on a 96-well plate for 72 hours at 37° C. The starting cell number is 8000 cells per well and volume is 120 μl. At the end of the 72-hour incubation, 40μl of XTT labeling mixture (50:1 solution of sodium 3′-[1 -(pheylamino-carbonyl)-3,4-tetrazolium]-bis (4-methoxy-6-nitro)benzene sulfonic acid hydrate and Electron-coupling reagent: PMS (N-methyl dibenzopyrazine methyl sulfate) is added to each well of the plate. After additional 2 hours of incubation at 37° C., the absorbance reading at 405 nm with background correction at 650 nm is done using a spectrophotometer.
(§9) 384-well AlamarBlue assay: 90 μl of cell suspension is plated onto each well of a 384-well plate preprinted with 0.5 μl of compound in DMSO or DMSO only. The starting cell number is 4000 cells per well. After 72-hour incubation, 10 μl of AlamarBlue solution (440 μM resazurin in PBS) is then added to each well of the plate. After additional 2-hour incubation at 37° C., fluorescence is measured using a TECAN plate reading with excitation at 535 nm and emission 591 nm.

[5] = tested on: THP cells; test: Cell survival assay (96-well XTT / 384-well AlamarBlue), THP; assay type: cell-based; details: Table 10; symbol in brackets; 72 hours
Experimental: as §6, §7, §8, §9

T2 sequence (P08581 25-1390): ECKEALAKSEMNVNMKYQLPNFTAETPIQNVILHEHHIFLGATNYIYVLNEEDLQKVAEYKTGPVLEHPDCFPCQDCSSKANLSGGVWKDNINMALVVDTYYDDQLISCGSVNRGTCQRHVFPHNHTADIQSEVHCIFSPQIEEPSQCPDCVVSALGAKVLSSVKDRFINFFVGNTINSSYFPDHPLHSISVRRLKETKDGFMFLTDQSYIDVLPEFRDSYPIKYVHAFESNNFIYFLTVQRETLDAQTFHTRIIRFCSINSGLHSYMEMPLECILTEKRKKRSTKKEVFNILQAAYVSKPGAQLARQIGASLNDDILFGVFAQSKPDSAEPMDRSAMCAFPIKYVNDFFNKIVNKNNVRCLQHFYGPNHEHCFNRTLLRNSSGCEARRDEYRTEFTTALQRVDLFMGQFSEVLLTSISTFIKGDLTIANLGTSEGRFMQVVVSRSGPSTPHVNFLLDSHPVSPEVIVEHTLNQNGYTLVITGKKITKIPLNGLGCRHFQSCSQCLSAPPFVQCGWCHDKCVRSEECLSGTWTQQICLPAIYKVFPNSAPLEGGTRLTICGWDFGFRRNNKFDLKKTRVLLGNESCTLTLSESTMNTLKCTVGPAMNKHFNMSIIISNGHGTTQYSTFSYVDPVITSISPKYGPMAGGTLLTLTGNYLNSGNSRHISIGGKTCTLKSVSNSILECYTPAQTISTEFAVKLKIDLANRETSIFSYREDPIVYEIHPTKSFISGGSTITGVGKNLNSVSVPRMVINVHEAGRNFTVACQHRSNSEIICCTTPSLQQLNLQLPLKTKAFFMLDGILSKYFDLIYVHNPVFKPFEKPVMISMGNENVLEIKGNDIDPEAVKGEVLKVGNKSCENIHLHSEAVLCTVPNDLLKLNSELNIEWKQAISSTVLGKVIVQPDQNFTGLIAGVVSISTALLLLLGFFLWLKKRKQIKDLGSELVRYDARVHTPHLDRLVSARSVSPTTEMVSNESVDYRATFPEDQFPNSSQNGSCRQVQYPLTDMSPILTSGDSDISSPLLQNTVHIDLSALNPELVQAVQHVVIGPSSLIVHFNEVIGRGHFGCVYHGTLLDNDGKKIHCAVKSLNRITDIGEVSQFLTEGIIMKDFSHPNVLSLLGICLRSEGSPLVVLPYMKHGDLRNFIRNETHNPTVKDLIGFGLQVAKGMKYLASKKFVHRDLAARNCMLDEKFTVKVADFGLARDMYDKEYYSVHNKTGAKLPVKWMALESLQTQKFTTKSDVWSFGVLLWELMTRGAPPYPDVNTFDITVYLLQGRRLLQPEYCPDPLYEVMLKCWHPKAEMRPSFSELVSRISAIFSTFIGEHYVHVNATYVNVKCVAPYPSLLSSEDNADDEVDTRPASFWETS
T3 sequence (Q04912 25-1400 M1254T): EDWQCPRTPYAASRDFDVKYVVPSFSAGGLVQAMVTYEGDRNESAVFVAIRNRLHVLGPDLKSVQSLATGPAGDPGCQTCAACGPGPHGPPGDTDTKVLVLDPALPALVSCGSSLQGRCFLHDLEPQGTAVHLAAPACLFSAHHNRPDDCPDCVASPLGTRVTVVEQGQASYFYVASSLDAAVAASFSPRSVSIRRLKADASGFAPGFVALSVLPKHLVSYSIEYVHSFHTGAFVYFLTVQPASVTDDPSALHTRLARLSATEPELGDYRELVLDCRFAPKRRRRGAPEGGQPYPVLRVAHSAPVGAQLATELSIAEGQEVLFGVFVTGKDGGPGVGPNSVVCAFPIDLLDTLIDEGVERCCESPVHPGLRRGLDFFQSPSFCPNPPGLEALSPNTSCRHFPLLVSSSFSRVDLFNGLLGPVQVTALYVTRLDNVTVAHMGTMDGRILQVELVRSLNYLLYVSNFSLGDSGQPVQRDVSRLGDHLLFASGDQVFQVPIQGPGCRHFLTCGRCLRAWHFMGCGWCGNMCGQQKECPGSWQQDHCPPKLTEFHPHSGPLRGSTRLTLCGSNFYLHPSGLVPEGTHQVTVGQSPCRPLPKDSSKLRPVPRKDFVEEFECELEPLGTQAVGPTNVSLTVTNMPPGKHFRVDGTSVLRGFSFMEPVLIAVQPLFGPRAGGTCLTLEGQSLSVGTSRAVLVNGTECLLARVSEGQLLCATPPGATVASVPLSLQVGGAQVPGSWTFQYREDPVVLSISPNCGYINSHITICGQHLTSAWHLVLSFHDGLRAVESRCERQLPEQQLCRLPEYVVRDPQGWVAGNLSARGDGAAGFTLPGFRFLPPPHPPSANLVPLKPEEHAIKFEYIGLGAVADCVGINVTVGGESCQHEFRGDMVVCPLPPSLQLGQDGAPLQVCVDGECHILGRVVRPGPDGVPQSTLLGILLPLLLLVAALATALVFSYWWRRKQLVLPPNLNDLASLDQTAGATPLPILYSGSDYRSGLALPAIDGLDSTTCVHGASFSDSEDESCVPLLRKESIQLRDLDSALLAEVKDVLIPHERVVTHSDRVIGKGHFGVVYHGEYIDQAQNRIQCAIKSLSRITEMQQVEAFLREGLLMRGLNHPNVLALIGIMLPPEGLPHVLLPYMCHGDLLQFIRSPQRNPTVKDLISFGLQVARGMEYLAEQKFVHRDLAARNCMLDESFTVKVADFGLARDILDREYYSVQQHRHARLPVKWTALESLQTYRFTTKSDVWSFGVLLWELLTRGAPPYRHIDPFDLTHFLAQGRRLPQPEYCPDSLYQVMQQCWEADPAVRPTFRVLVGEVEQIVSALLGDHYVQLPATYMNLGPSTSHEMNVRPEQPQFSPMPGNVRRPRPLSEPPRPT

Compound | pIC50 [1] | pIC50 [2] | pIC50 [3] | also measured
Nc1nc2[nH]nc(-c3ccccc3)c2s1 | 4.00 to 4.96 | – | – | –
O=C(Nc1nc2[nH]nc(-c3cccc(Cl)c3)c2s1)c1ccccc1 | 5.00 to 6.00 | – | – | –
O=C(Nc1nc2[nH]nc(-c3ccccn3)c2s1)c1ccccc1 | 4.00 to 4.96 | – | – | –
COc1ccc(-c2n[nH]c3nc(NC(=O)c4ccccc4)sc23)cc1 | 4.00 to 4.96 | – | – | –
O=C(Cc1cccs1)Nc1nc2[nH]nc(-c3ccccc3)c2s1 | > 6.00 | – | – | –
O=C(Nc1nc2[nH]nc(-c3ccc(Cl)cc3)c2s1)c1ccccc1 [drawing 281] | – | – | – | pIC50 [4]: 5.00 to 6.00; pIC50 [5]: 4.00 to 4.96
O=C(Nc1nc2[nH]nc(-c3ccccc3)c2s1)c1ccncc1 [drawing 282] | – | – | – | pIC50 [4]: 5.00 to 6.00; pIC50 [5]: 4.00 to 4.96
COCCOCC(=O)Nc1nc2[nH]nc(-c3ccccc3)c2s1 [drawing 283] | – | – | – | pIC50 [4]: 5.00 to 6.00; pIC50 [5]: 4.00 to 4.96
CC(=O)N1CCC(C(=O)Nc2nc3[nH]nc(-c4ccccc4)c3s2)CC1 [drawing 284] | – | – | – | pIC50 [4]: 5.00 to 6.00; pIC50 [5]: 4.00 to 4.96

Further lines, with some results ahead:

pIC50 [1] | pIC50 [2] | pIC50 [3] | Compound | also measured
– | > 5.30 | 4.70 to 5.30 | CC(C)C(=O)Nc1nc2[nH]nc(-c3ccccc3Cl)c2s1 | –
– | 4.70 to 5.30 | 4.70 to 5.30 | COc1cccc(OC)c1C(=O)Nc1nc2[nH]nc(-c3ccccc3Cl)c2s1 | –
– | < 4.70 | < 4.70 | CC(=O)O[C@@H](C)C(=O)Nc1nc2[nH]nc(-c3ccccc3Cl)c2s1 | –
> 6.00 | – | – | O=C(Nc1nc2[nH]nc(-c3ccccc3)c2s1)c1ccco1 [drawing 264] | –
– | > 5.30 | 4.70 to 5.30 | O=C(Nc1nc2[nH]nc(-c3ccc(O)cc3)c2s1)C1CC1 [drawing 274] | –
– | > 5.30 | 4.70 to 5.30 | O=C(Nc1nc2[nH]nc(-c3ccccc3Cl)c2s1)C1CC1 [drawing 276] | –
– | 4.70 to 5.30 | < 4.70 | O=C(Nc1nc2[nH]nc(-c3ccccc3Br)c2s1)C1CC1 [drawing 278] | –
– | < 4.70 | < 4.70 | COc1ccc(-c2n[nH]c3nc(NC(=O)C4CC4)sc23)cc1 [drawing 280] | –
